According to patent publication US8129340B2, “Inhibitors of protein phosphatase 1, GADD34 and protein phosphatase 1/GADD34 complex, preparation and uses thereof” (Institut Gustave Roussy, priority 2006, dated 2012):
Peptide text beside a SMILES is read from it. * marks the point of attachment. Cbz = O=C(OCc1ccccc1)*; CH2F = FC*

Tests used:
CT26 colon cancer cells = test: In vivo anti-cancer vaccination: treated tumour cells in one flank and live tumour cells in opposite flank simultaneously; set-up: species or system BALB/c mice
Description: FIG. 4A: In vivo anti-cancer vaccination depends on CRT. CT26 colon cancer cells were transfected with the indicated siRNAs, then treated with rCRT and/or mitoxantrone (as in FIG. 3D) and the anti-tumour response was measured by simultaneously challenging BALB/c mice with mitoxantrone treated tumour cells in one flank and untreated live tumour cells in the opposite flank.
FIG. 4D: CRT-mediated amelioration of the immune response against etoposide-treated tumour cells. CT26 cells were treated for 24 h with etoposide (or PBS) and rCRT was optionally absorbed to the cell surface (inserts), followed by simultaneous injection of the etoposide ±rCRT-treated tumour cells and live tumour cells in opposite flanks and monitoring of tumour growth.
(§1) Tumours were evaluated weekly, using a caliper.

CT26 cells = test: Phagocytosis of CT26 tumour cells by dendritic cells (FACS, double positive cells); type: cell-based, BALB/c mice; settings: cells transfected with siRNA
Description: FIG. 3A, FIG. 3B: Correlation between tumour cell phagocytosis and CRT exposure. Tumour cells labelled with Cell Tracker Green were cultured with CD11c-expressing DC and the percentage of DC taking up tumour cells was determined (A) and correlated with the CRT surface exposure (B), measured as in FIG. 2E.
Mitoxantrone-treated or control cells were incubated with a blocking chicken anti-CRT antibody, followed by detection of phagocytosis by CD.
Cells were transfected with the indicated siRNAs and optionally treated with rCRT, followed by immunoblot (FIG. 3D) detection of surface CRT (FIG. 3E) and phagocytosis by DC (FIG. 3F). Results are triplicates (X±SD) and representative of three independent experiments. * denotes statistically significant differences using the Student t′ test at p<0.001.
BM cells were flushed from the tibias and femurs of BALB/c mice with culture medium composed of RPMI 1640 medium (Invitrogen Life Technologies) supplemented with 10% heat-inactivated FBS (Invitrogen), sodium pyruvate, 50 μM 2-ME (Sigma), 10 mM HEPES (pH 7.4), and penicillin/streptomycin (Invitrogen). After one centrifugation, BM cells were resuspended in Tris-ammonium chloride for 2 min to lyse RBC. After one more centrifugation, BM cells (1×10^6 cells/ml) were cultured in medium supplemented with 100 ng/ml recombinant mouse FLT3 ligand (R&D systems) in 6-well plates (Costar Corning). After 7 days, the non-adherent and loosely adherent cells were harvested with Versene, washed and transferred in 12-well plates (1.5×10^6 cells/plate) for cocultures with tumour cells.
In 12-well plates, […] adherent CT26 cells were labelled with Celltracker Green (Calbiochem) and then incubated with drugs. In some experiments viable CT26 were coated with 2 μg/10^6 cells of chicken anti-CRT antibody (ABR affinity bioreagents) or an isotype control for 30 min prior to washing and feeding to dendritic cells Cs. Alternatively CT26 cells were coated with 2 μg/10^6 cells of rCRT on ice for 30 min and washed twice prior to addition to dendritic cells. Cells were then harvested, washed three times with medium supplemented with FBS and cocultured with immature DC for 2 hours at a ratio of 1:1 and 1:5. At the end of the incubation, cells were harvested with versene, pooled with non-adherent cells present in the supernatant, washed and stained with CD11c-FITC antibody. Phagocytosis was assessed by FACS analysis of double positive cells. Phagocytic indexes refer to the ratio between values obtained at 4° C. and values obtained at 37° C. of co-incubation between DC and tumour cells.

CT26 tumour cells [1] = test: Local immune response: tumour cells injected into foot pad, IFN-γ secretion by draining popliteal lymph node cells (ELISA); type: in vivo, Balb/c mice; settings: cells injected into the foot pad
Description: FIG. 4B: Priming of T cell responses depending on CRT. CT26 tumour cells were left untransfected or transfected with the indicated siRNAs, then treated with medium alone, mitomycin C or mitoxantrone and injected into the right food pad of Balb/c mice. Five days later, mononuclear cells from the draining popliteal lymph nodes were challenged with freeze-thawed CT26 cells, and IFN-γ secretion was assessed at 72 hrs.
FIG. 4C: Exogenous supply of CRT enhances the immunogenicity of CRT-negative dying cells. CT26 cells lacking CRT expression after depletion of CRT with a siRNA and mitoxantrone treatment or after mitomycin treatment were coated with rCRT (inserts) and then injected in the food pad, followed by assessment of the IFN-γ secretion by cells from the draining lymph nodes as in FIG. 4B.
as §1

CT26 tumour cells [2] = test: Anti-tumour vaccination: dying treated CT26 cells injected in one flank, later challenge with live tumour cells; type: in vivo, BALB/c mice; settings: for induction of immunogenic cell death by the inhibitor alone: without cell death inducer
cell surface CRT = test: Fluorescence detection of cell surface CRT on CT26 cells (cytofluorometry); type: cell-based, murine; settings: agent alone; for induction of ecto-CRT and/or ecto-Erp57: tumour cells
Description: FIG. 1SA, FIG. 1SB: Kinetics of CRT exposure. CT26 cells were treated with mitoxantrone for the indicated period, followed by immunofluorescence staining with a CRT-specific antibody and cytofluorometric analysis.
FIG. 2E: Correlation between CRT exposure and immunogenicity. The surface exposure of CRT was determined by immunofluorescence cytometry while gating on viable (propidium iodine-negative) cells (inserts) and was correlated with the immunogenicity of cell death (as determined in FIG. 1). CO, control; Tg, thapsigargin; Tu, tunicamycin.
FIG. 5E: Kinetics of CRT exposure determined by FACS analysis after incubation of cells with the indicated agents.
FIG. 5F-FIG. 5G: PP1/GADD34 inhibitors render cell immunogenic via CRT. Tumour cells were first transfected with a control siRNA or a CRT-specific siRNA and then treated in vitro with etoposide, alone or in combination with PP1/GADD34 inhibitors. […] The results represent the % of tumour free mice (comprising a total of 12 to 18 mice per group).
CT26 cells (on a glass slide or in 12-well plates) were first washed with FACS buffer (1×PBS, 5% fetus bovine serum, and 0.1% sodium azide) and then incubated with rabbit anti-mouse CRT antibody (1:100, Stressgen) in FACS buffer at 4° C. for 30 min. Cells reacted with anti-rabbit IgG (H+L) Alexa fluor 488-conjugates (1:500) in FACS buffer at 4° C. for 30 min. After washing three times with FACS buffer, surface CRT was detected by cytofluorometric analysis on a FACS Vantage. In some experiments, cells were fixed with 4% paraformaldehyde, counterstained with Hoechst (2 μM; Sigma), followed by fluorescence microscopic assessment with a Leica IRE2 microscope equipped with a DC300F camera.

CT26 tumours [3] = test: Intratumoural treatment of established CT26 tumours in immunodeficient mice; type: in vivo, athymic nu/nu Balb/c mice
CT26 tumours [4] = test: Intratumoural treatment of established CT26 tumours in immunocompetent mice; type: in vivo, BALB/c mice (wild type)
CRT [5] = test: CRT exposure on tumour cell lines of murine origin (MCA205, B16F10, J558); type: cell-based
CRT [6] = test: CRT exposure on tumour cell lines of human origin (HeLa, A549, HCT116); type: cell-based
calreticulin [7] = test: Calreticulin exposure by immunofluorescence staining and flow cytometry, HCT116 cells; type: cell-based, human; settings: 2 hours
Description: (§2) HCT116 cells (FIG. 7A) or CT26 cells (FIG. 7B) were cultured in complete mediums supplemented with 10% fetal calf serum alone or in the presence of the control peptide (VKKKKIKREIKI-lkaravafsekv) (SEQ ID NO: 17) or the PP1/GADD34 inhibitory peptide (VKKKKIKREIKI-lkarkvrfsekv, SEQ ID NO: 4. denominated PP1 peptide) for 2 hours. Cells were washed twice with PBS and fixed in PFA (4% w/v) for 5 min. Cells were stained with an antibody against calreticulin (pAb from Abeam, ab2907) at 1:200 dilution or isotype control, in staining buffer (PBS, 1% FCS) for 30 min on ice, followed by washing. An anti-rabbit Alexa fluor 488 immunoglobulin conjugate (Molecular Probes-Invitrogen) diluted at 1:500 was added for an additional 30 min on ice before washing and analysed by flow cytometry (FACScan, Becton Dickinson). Propidium Iodide (50 μg/ml, Becton Dickinson) was added to the samples to label and exclude permeabilized (dead) cells.

calreticulin [8] = test: Calreticulin exposure by immunofluorescence staining and flow cytometry, CT26 cells (peptide test); type: cell-based, murine; settings: 2 hours
Description: as §2

[9] = dying CT26 cells treated with agent injected into one flank, live tumour cells in opposite flank 8 days later

“5′-rCrCrGrCUrGrGrGUrCrGrArAUrCrRrArATT-3′ [CRT-specific siRNA]” was tested, and the “immunogenicity of mitoxantrone-treated CT26 cells (efficacy of anti-tumour vaccination)” value (CT26 colon cancer cells; cells injected into the flank of Balb/c mice) was “compromised the immunogenicity of mitoxantrone-treated CT26 cells”, the “phagocytosis of anthracyclin-treated tumour cells by DC after siRNA knockdown of CRT” value (CT26 cells) was “suppressed the phagocytosis of anthracyclin-treated tumour cells” and the “immunogenicity of mitoxantrone-treated CT26 cells (interferon-γ production by T cells from popliteal lymph node)” value (CT26 tumour cells [1]) was “compromised the immunogenicity of mitoxantrone-treated CT26 cells”.
`CCCCCCCCCCCCC/C=C/[C@@H](O)[C@H](CO)NC(C)=O` [C2 ceramide, C2-ceramide] was tested, and the “immunogenicity of cell death (protection against tumour growth, anti-tumour vaccination)” value (from here on “immunogenicity of cell death”) (CT26 tumour cells [2]; [9]) was “failed to induce immunogenic apoptosis”.
For `CCOc1ccc(-c2nc3ccc(-c4nc5ccc(N6CCN(C)CC6)cc5[nH]4)cc3[nH]2)cc1` [Hoechst 33342], the “immunogenicity of cell death” value (CT26 tumour cells [2]; [9]) was “failed to induce immunogenic apoptosis”.
With `COC(=O)C[C@H](NC(=O)[C@H](C)NC(=O)[C@@H](NC(=O)OCc1ccccc1)C(C)C)C(=O)CF` [Z-VAD-fmk] (Cbz-Val-Ala-Asp(OMe)-CH2F) the “effect on immunogenicity of doxorubicin-elicited cell death” value (CT26 tumour cells [2]; combined with doxorubicin) was “reduces the immunogenicity of doxorubicin-elicited cell death”.
With `C[C@H]1CCC/C=C/[C@@H]2C[C@H](O)C[C@H]2[C@H](O)/C=C/C(=O)O1` [brefeldin, brefeldin A] the “immunogenicity of cell death” value (CT26 tumour cells [2]; [9]) was “failed to induce immunogenic apoptosis”.
With `COC[C@@H]([C@H](O)[C@H](O)C(=O)NCC[C@H](C)c1nc(/C=C/C[C@@H]2O[C@]3(C[C@@H](O)[C@@H]2C)O[C@H]([C@H](C[C@H](O)[C@H](C)[C@H](O)[C@H](C)/C=C(C)/C(C)=C/C=C/C(C)=C\C#N)OC)[C@H](OP(=O)(O)O)C3(C)C)co1)N(C)C` [calyculin A] the “induction of CRT exposure at the cell surface” value (shortened to “induction of CRT exposure”) (cell surface CRT) was “efficiently induced” and the “induction of immunogenic cell death by the inhibitor alone” value (CT26 tumour cells [2]) was “not sufficient to induce immunogenic cell death”.
In the case of `CC[C@@]1(O)C(=O)OCc2c1cc1n(c2=O)Cc2cc3ccccc3nc2-1` [camptothecin], the “immunogenicity of cell death” value (CT26 tumour cells [2]; [9]) is reported as “failed to induce immunogenic apoptosis”.
For `COc1cc([C@@H]2c3cc4c(cc3[C@@H](O[C@@H]3O[C@@H]5CO[C@@H](C)O[C@H]5[C@H](O)[C@H]3O)[C@H]3COC(=O)[C@H]23)OCO4)cc(OC)c1O` [etoposide], the “immunogenicity of sham-coated etoposide-treated cells” value (CT26 colon cancer cells; sham-coated cells treated with etoposide) was “poorly immunogenic”, the “induction of ecto-CRT and/or ecto-Erp57” value (cell surface CRT) was “fail to induce ecto-CRT and/or ecto-Erp57” and the “therapeutic effect of single agent on established tumours, nu/nu mice” value (shortened to “therapeutic effect of single agent … nu/nu mice”) (CT26 tumours [3]; mouse, in vivo) was “no major therapeutic effect”. The “immunogenicity of cell death” value (CT26 tumour cells [2]; [9]) was “failed to induce immunogenic apoptosis” and the “therapeutic effect of single agent on established tumours, immunocompetent mice” value (CT26 tumours [4]; mouse, in vivo) was “no major therapeutic effect”.
`CC(=O)[C@]1(O)Cc2c(O)c3c(c(O)c2[C@@H](O[C@H]2C[C@H](N)[C@H](O)[C@H](C)O2)C1)C(=O)c1ccccc1C3=O` [idarubicin] was tested, and the “immunogenicity of cell death” value (CT26 tumour cells [2]; [9]) was “elicited immunogenic cell death”.
In the case of `CO[C@@]12[C@H](COC(N)=O)C3=C(C(=O)C(C)=C(N)C3=O)N1C[C@@H]1N[C@@H]12` [mitomycin C], the “induction of CRT exposure” value (cell surface CRT) is reported as “cannot promote CRT exposure on tumor cell surface”, the “induction of ecto-CRT and/or ecto-Erp57” value (cell surface CRT) is reported as “fail to induce ecto-CRT and/or ecto-Erp57” and the “therapeutic effect of single agent … nu/nu mice” value (CT26 tumours [3]; mouse, in vivo) is reported as “no major therapeutic effect”. For the same molecule, the “immunogenicity of cell death” value (CT26 tumour cells [2]; mouse, in vivo) was “failed to induce immunogenic apoptosis” and the “therapeutic effect of single agent on established tumours, immunocompetent mice” value (CT26 tumours [4]; mouse, in vivo) was “no major therapeutic effect”.
For `O=C(/C=C/c1ccccc1)NC(NC(=S)Nc1cccc2cccnc12)C(Cl)(Cl)Cl` (centres unmarked) [salubrinal], the “CRT exposure on murine tumour cell lines” value (CRT [5]) was “induced CRT exposure”, the “induction of CRT exposure” value (cell surface CRT) was “efficiently induced” and the “CRT exposure on human tumour cell lines” value (CRT [6]) was “induced CRT exposure”. The “therapeutic effect of single agent … nu/nu mice” value (CT26 tumours [3]; single intratumoural injection) was “no major therapeutic effect”, the “induction of immunogenic cell death by the inhibitor alone” value (CT26 tumour cells [2]) was “not sufficient to induce immunogenic cell death” and the “therapeutic effect combined with a cell death inducer (etoposide or mitomycin C), immunocompetent mice” value (CT26 tumours [4]; intratumoural injection with etoposide or mitomycin C) was “stable disease or complete tumour regression”. The “therapeutic effect of single agent on established tumours, immunocompetent mice” value (CT26 tumours [4]; single intratumoural injection, 14-day-old CT26 tumours) was “no major therapeutic effect”.
In the case of `C/C=C(/C)C(=O)O[C@H]1C(C)=C2[C@H]([C@@H]1OC(=O)CCCCCCC)[C@@](C)(OC(C)=O)C[C@H](OC(=O)CCC)[C@@]1(O)[C@H]2OC(=O)[C@@]1(C)O` [thapsigargin], the “immunogenicity of cell death” value (CT26 tumour cells [2]; [9]) is reported as “failed to induce immunogenic apoptosis”.
With “VKKKKIKREIKI-lkaravafsekv (VKKKKIKREIKILKARAVAFSEKV; Artificial sequence including a fragment of GADD34 and a translocation motif) [mutant control peptide]” the “exposure of calreticulin, HCT116 cells” value (calreticulin [7]) was “did not induce calreticulin exposure” and the “exposure of calreticulin, CT26 cells” value (calreticulin [8]) was “did not induce calreticulin exposure”.
In the case of tunicamycin, the “immunogenicity of cell death” value (CT26 tumour cells [2]; [9]) is reported as “failed to induce immunogenic apoptosis”.
